Columns and labels:
[1] = Extraction by HDEHP with 1 mM 343HOPO in 0.1 M HNO3 and 1.9 M NaNO3; conditions: chelator in place of 343HOPO; acidic conditions
Protocol: Aqueous phase: 1 mM 343HOPO in 0.1 M HNO3 and 1.9 M NaNO3. Organic phase: HDEHP in kerosene.
A log scale is used for clarity. See FIGS. 58A and 58B for results as a function of the phase ratio.
(§1) For Example 20—Example 24, pH measurements were performed with a glass electrode (Metrohm-Micro Combi-response to [H+]) calibrated at 25.0° C. using three NIST standards. Extraction samples were analyzed by liquid scintillation counting (LSC). The distribution coefficient, D(M), of a given metal, M, is defined in Eq. 1, where [M]organic and [M]aqueous are the respective total concentrations of M in the organic and aqueous layers, after extraction. Both concentrations are proportional to the volumetric activity (in Bq/L) determined by LSC. The separation factor, SFM1/M2, between two metals, M1 and M2, and extraction yield were calculated according to Eq. 2 and Eq. 3, respectively.
(§2) In a typical experiment, the solvent (extractant diluted in kerosene) was pre-conditioned by shaking one volume of solvent with three volumes of aqueous phase (typically HNO3) at room temperature for 1 h, thrice. For radioisotope extractions, at least 400 μL aqueous phase (typically containing HNO3, a chelator and a radioisotope) and solvent were placed in air-tight screw-capped plastic tubes, triply-contained, and shaken in a thermoshaker at 300 rpm, 25° C., for at least 30 min. Samples were then centrifuged for 5 min at 3000 rpm and phases separated before analysis. LSC analyses were performed on a Packard Tri-Carb B4430 instrument (Perkin Elmer) after mixing sample aliquots or sample dilution aliquots (10 to 200 μL) with 10 mL of scintillation cocktail (UltimaGold LLT). Samples were counted for at least 6 min and results were background subtracted. The analytical samples contained between 0 and 800,000 CPM. Mixtures of ^249Bk and ^249Cf were analyzed using α/β discrimination and energy windows were set to 0-50 keV for low-energy β particles of ^249Bk and 50-1000 keV for α particles of ^249Cf. ^243Am and ^225Ac samples were counted at secular equilibrium.

[2] = Stability constant (log β) of ligand-metal complexes; format: binding; conditions: 25.0° C., 0.1 M KCl
Protocol: Solution Thermodynamics. All titrant solutions were degassed by boiling for 1 h while being purged under Ar. Carbonate-free 0.1 M KOH was prepared from concentrate (J. T Baker Dilut-It) and was standardized by titrating against 0.1 M potassium hydrogen phthalate (99.95%, Sigma Aldrich). Solutions of 0.1 M HCl were similarly prepared and were standardized by titrating against TRIS (99.9%, J. T. Baker). The glass electrode (Metrohm—Micro Combi—response to [H+]) used for the pH measurements was calibrated at 25.0° C. and at an ionic strength of 0.1 M (KCl) before each potentiometric or spectrophotometric titration. The calibration data were analyzed using the program GLEE (Gans & O'Sullivan, Talanta, 2000, 51 (1): 33-37) to refine for the E° and slope. All thermodynamic measurements were conducted at 25.0° C., in 0.1 M KCl supporting electrolyte under positive Ar gas pressure. The automated titration system was controlled by an 867 pH Module (Metrohm). Two-milliliter Dosino 800 burets (Metrohm) dosed the titrant (0.1 M KOH or 0.1 M HCl) into the thermostated titration vessel (5-90 mL). UV-visible spectra were acquired with an Ocean Optics USB4000-UV-vis spectrometer equipped with a TP-300 dip probe (Ocean Optics; path length of 10 mm), fiber optics and a DH-2000 light source (deuterium and halogen lamps). The fully automated titration system and the UV-vis spectrophotometer were coordinated by LBNL titration system, a computer program developed in house.
Incremental Spectrophotometric Titrations. This method was used to determine the protonation constants of 3,4,3-LI(CAM) as well as the stability constants of its complexes formed with Eu(III), Zr(IV) and ^232Th(IV). The experimental titration setup is similar to previously described systems (Sturzbecher-Hoehne, et al., Radiochimica Acta., 2013, 101 (6): 359-366). For the 3,4,3-LI(CAM) protonation (and Eu(III)-3,4,3-LI(CAM) complexes), titrations were performed with an initial concentration of 50 μM of 3,4,3-LI(CAM) (and 50 μM of Eu(III)) resulting in absorbance values included between 0 and 1.0 throughout the titration. Typically, 9 mL of a sample containing 3,4,3-LI(CAM) (and Eu(III)) and the supporting electrolyte (KCl/HCl) were incrementally perturbed by addition of 0.025 mL of carbonate-free 0.1 M KOH followed by a time delay of 80 s. Buffering of the solution was ensured by the addition of 10 mM of HEPES, 10 mM of CHES and 10 mM of MES. Between 130 and 250 data points were collected per titration, each data point including a pH measurement and a UV-Vis spectrum (250-450 nm) over the pH range 1.5 to 12.0. All spectra were corrected for dilution before data fitting. The entire procedure (electrode calibrate, titration and data treatment) was performed independently five times for the protonation constants and four times for the Eu(III)-3,4,3-LI(CAM) complexes. For the Zr(IV) and Th(IV) complexes, titrations were performed similarly but in the presence of DTPA to avoid the formation of metal hydroxides at low pH, before the uptake by 3,4,3-LI(CAM). For each metal, three titrations were performed independently in the presence of 1.1 to 40 equivalents of DTPA.
Data Treatment. […] All metal and chelator concentrations were held at estimated values determined from the volume of standardized stock solutions. All species formed with 3,4,3-LI(CAM) were considered to have significant absorbance to be observed in the UV-vis spectra and were therefore included in the refinement process. […]

[3] = Eu(III), I=2.0 M at 25° C.; cited from earlier work
[4] = Extraction by TODGA from HNO3 in the absence or presence of 1 mM 343HOPO
Protocol: Organic phase: 0.1 M TODGA in kerosene. Aqueous solvent: HNO3. T=25° C. O/A=1, one contact. Points with arrows are lower limits.
as §1, §2

Structure (SMILES): O=C(O)CN(CCN(CC(=O)O)CC(=O)O)CC(=O)O [EDTA, Ethylenediaminetetraacetic acid]
- separation between Bk and Cf [1]: no separation at all

Structure (SMILES): O=C(NCCCN(CCCCN(CCCNC(=O)c1cccc(O)c1O)C(=O)c1cccc(O)c1O)C(=O)c1cccc(O)c1O)c1cccc(O)c1O [3,4,3-LI(CAM)]
- log β110 ([2]; [Eu-3,4,3-LI(CAM)]^5−): 29.7
- log β110 ([2]; [Th-3,4,3-LI(CAM)]^4−): 47.7
- log β110 ([2]; [Zr-3,4,3-LI(CAM)]^4−): 57.3

Structure (SMILES): O=C(O)CN(CC(=O)O)CC(=O)O [NTA, Nitrilotriacetic acid]
- separation between Bk and Cf [1]: no separation at all

Structure (SMILES): CC(O)C(=O)O (stereo not drawn) [lactate]
- log β130 [3]: 5.88

Structure (SMILES): O=C(O)CN(CC(=O)O)[C@H]1CCCC[C@@H]1N(CC(=O)O)CC(=O)O [CDTA, Trans-1,2-cyclohexanediamine-N,N,N′,N′-tetraacetic acid]
- separation between Bk and Cf [1]: no separation at all

Structure (SMILES): CCCCCCCCN(CCCCCCCC)C(=O)COCC(=O)N(CCCCCCCC)CCCCCCCC [TODGA, N,N,N′,N′-tetraoctyl diglycolamide, reference compound]
- distribution factor of uranyl (Du) ([4]; TODGA as extractant): < 30
- extraction yields of Gd^3+, Lu^3+, UO2^2+, Pu^4+, and Cf^3+ from HNO3 ([4]; if HNO3>1 M, no chelator, 0.1 M TODGA in kerosene): > 99.5%

Source: patent US12002595B2, “Separation of metal ions by liquid-liquid extraction” (priority 2016, dated 2024)
